In ChEMBL document CHEMBL2346525, “Diastereotopic and deuterium effects in gemini” (J Med Chem, 2013):
Calls of active or inactive are those of the source. The calls are words filed in the database; no cut-off is given here.

Species on record: Homo sapiens
Test: Cytotoxicity against human ER negative MCF10CA1a cells assessed as growth inhibition after 3 days by [3H]thymidine incorporation assay
Assay type: functional, cell-based
Details: tested as the 2H-labelled form

| SMILES | growth inhibition (GI) |
| --- | --- |
| CC(C)(O)CCCC(CCCC(C)(C)O)[C@H]1CC[C@H]2/C(=C/C=C3C[C@@H](O)C[C@H](O)C3)CCC[C@]12C | Active |
| C=C1/C(=C\C=C2/CCC[C@]3(C)[C@@H](C(CCCC(C)(C)O)CCCC(C)(C)O)CC[C@@H]23)C[C@@H](O)C[C@@H]1O | Active |
